We go through 14 molecules from patent publication US20220160664A1, “TAZ ACTIVATORS AND WNT AGONISTS FOR TREATING EAR DISORDERS” (Frequency Therapeutics, Inc., priority 2019, published 2022).

The structures appear in SMILES notation. pIC50: −log10 of the molar value.

For data set [1], the system named is Lgr5 GFP(+) cochlear progenitor cells. Description: Lgr5+ Assay / Stem Cell Proliferation Assay: proliferation and enrichment of Lgr5 GFP(+) cochlear progenitor cells. It is filed as cell-based. An excerpt:
FIG. 1A is a graph depicting that the TAZ activator IBS008738 enhances Lgr5 GFP(+) progenitor cell proliferation when combined with CHIR in a background of growth factors. The y-axis depicts Lgr5 GFP(+) cell count and the x-axis depicts control conditions (background growth factors plus CHIR (EFI-C) or CHIR and VPA (EFI-CV)) versus CHIR+IBS008738 (EFI-C-IBS).
The y-axis depicts Lgr5 GFP(+) cell area and the x-axis depicts concentration of FHZ-000706.
FIG. 4A is a graph depicting that the TAZ activator FHZ-000706 enhances Lgr5 GFP(+) progenitor cell proliferation when combined with CHIR in a background of growth factors compared to CHIR alone.
The TAZ activator and the Wnt agonist (optionally in combination with an epigenetic agent) is capable of (i) forming a proliferation assay final cell population from a proliferation assay initial cell population over a proliferation assay time period in a stem cell proliferation assay, and/or (ii) forming a differentiation assay final cell population from a differentiation assay initial cell population over a differentiation assay time period in a Stem Cell differentiation assay wherein: (a) the proliferation assay initial cell population has (i) a Proliferation assay initial number of total cells, (ii) a proliferation assay initial number of Lgr5+ cells, (iii) a proliferation assay initial number of hair cells, (iv) a proliferation assay initial Lgr5+ cell fraction that equals the ratio of the proliferation assay initial number of Lgr5+ cells to the proliferation assay initial number of total cells, and (v) a proliferation assay initial hair cell fraction that equals the ratio of the proliferation assay initial number of hair cells to the proliferation assay initial number of total cells; (b) the proliferation assay final cell population has (i) a proliferation assay final number of total cells, (ii) a proliferation assay final number of Lgr5+ cells, (iii) a proliferation assay final number of hair cells, (iv) a proliferation assay final Lgr5+ cell fraction that equals the ratio of the proliferation assay final number of Lgr5+ cells to the proliferation assay final number of total cells and (v) a proliferation assay final hair cell fraction that equals the ratio of the proliferation assay final number of hair cells to the proliferation assay final number of total cells; (c) the differentiation assay initial cell population has (i) a differentiation assay initial number of total cells, (ii) a differentiation assay initial number of Lgr5+ cells, (iii) a differentiation assay initial number of hair cells, (iv) a differentiation assay initial Lgr5+ cell fraction that equals the ratio of the differentiation assay initial number of Lgr5+ cells to the differentiation assay initial number of total cells, and (v) a differentiation assay initial hair cell fraction that equals the ratio of the differentiation assay initial number of hair cells to the differentiation assay initial number of total cells; (d) the differentiation assay final cell population has (i) a differentiation assay final number of total cells, (ii) a differentiation assay final number of Lgr5+ cells, (iii) a differentiation assay final number of hair cells, (iv) a differentiation assay final Lgr5+ cell fraction that equals the ratio of the differentiation assay final number of Lgr5+ cells to the differentiation assay final number of total cells, and (v) a differentiation assay final hair cell fraction that equals the ratio of the differentiation assay final number of hair cells to the differentiation assay final number of total cells; (e) the proliferation assay final number of Lgr5+ cells exceeds the proliferation assay initial number of Lgr5+ cells by a factor of at least 10; and/or (f) the differentiation assay final number of hair cells is a non-zero number.

For data set [2] the following is noted: cited from earlier work; for Human In Vivo Conc: Table 8.
The target in the next data set is DOT1L (Homo sapiens, UniProt Q8TEK3). As to conditions: DOT1L inhibitors, Table 8; cited from earlier work.
DOT1L, sequence (Q8TEK3 whole entry, species assumed): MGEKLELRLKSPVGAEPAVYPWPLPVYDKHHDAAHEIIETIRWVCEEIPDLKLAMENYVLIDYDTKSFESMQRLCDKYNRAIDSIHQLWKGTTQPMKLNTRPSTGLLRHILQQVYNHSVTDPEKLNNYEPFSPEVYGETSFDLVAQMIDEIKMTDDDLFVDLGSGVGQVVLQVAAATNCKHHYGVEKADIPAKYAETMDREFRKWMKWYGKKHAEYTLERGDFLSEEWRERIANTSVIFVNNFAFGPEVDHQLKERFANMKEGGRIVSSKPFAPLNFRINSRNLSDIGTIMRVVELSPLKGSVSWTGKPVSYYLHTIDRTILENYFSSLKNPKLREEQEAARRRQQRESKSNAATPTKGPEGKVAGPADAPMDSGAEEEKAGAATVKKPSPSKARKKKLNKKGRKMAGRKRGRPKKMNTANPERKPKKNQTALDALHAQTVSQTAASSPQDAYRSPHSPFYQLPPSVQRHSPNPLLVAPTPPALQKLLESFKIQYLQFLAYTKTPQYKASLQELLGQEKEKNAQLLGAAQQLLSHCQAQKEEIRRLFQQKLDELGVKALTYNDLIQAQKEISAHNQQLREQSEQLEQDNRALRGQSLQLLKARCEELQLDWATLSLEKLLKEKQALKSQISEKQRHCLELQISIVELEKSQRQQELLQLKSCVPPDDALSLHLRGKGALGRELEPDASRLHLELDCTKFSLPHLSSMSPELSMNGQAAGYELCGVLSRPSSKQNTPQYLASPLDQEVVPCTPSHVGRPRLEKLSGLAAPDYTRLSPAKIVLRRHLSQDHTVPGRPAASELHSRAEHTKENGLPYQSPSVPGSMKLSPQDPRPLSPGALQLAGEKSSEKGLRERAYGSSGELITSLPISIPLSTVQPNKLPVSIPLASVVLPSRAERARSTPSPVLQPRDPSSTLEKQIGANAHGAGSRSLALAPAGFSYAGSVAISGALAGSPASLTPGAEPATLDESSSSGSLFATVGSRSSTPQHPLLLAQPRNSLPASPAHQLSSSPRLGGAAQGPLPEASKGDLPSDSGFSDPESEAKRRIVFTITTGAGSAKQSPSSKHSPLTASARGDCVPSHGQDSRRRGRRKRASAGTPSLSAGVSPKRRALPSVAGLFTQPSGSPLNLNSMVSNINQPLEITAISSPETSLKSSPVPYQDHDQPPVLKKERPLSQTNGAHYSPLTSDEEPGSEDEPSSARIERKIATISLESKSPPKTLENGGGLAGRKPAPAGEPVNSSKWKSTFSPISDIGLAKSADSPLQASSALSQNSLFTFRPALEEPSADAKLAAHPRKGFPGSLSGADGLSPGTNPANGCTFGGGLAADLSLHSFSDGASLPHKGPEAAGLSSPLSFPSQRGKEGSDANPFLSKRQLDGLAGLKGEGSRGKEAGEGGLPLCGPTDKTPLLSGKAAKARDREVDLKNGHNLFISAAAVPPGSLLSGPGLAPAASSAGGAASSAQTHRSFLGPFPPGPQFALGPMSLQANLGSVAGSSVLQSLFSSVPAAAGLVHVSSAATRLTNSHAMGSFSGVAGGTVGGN
Data set [3] has as its system cochlear progenitor cells (Lgr5+). Kind of data set: Lgr5 cell expansion: quantification of cell proliferation, expansion and enrichment (flow cytometry / Celigo imaging). As to conditions: for enrichment of Lgr5+ progenitor cells / proliferation of Lgr5+ progenitor cells: TAZ activator 10 μM combined with Wnt agonist CHIR99021 (4 μM). The class given is cell-based, mice. How it is done:
Neonatal Lgr5-EGFP-IRES-Cre-ER mice (The Jackson Laboratory, strain 8875) were used to analyze the effects of small molecules on cochlear stem cell expansion (see Barker et al., Nature 449, 1003-7 (2007). This strain allowed for visualization and quantification of EGFP cells.
All animal studies were conducted under an approved institutional protocol per National Institutes of Health guidelines. Using neonatal animals, cochleae were dissected and the organ of Corti (sensory epithelium) was separated from the stria vascularis (ion transport epithelium) and the modiolus (nerve tissue). Epithelia were then collected and treated with TrypLE for 15-20 minutes to obtain single cells. The cells were then filtered ([…]) and suspended in a Matrigel (Corning) dome for 3D culture seeded at 0.5 cochlea per well.
Expansion of Lgr5 Cells: Cells were cultured in a 3D system and bathed in a serum free 1:1 mixture of DMEM and F12, supplemented with Glutamax (GIBCO), N2, B27 (Invitrogen), EGF (50 ng/mL; Chemicon), bFGF (50 ng/mL; Chemicon), IGF-1 (50 ng/mL; Chemicon), and small molecules for seven days. Media was changed every other day. Treatments were run in triplicate or quadruplicate.
Quantification of Cell Proliferation: Lgr5 cells were quantified after 7-10 days. Cell colonies were dissociated into single cells using TrypLE. The cells were then stained with propidium iodide (PI) and analyzed using a flow cytometer to count Lgr5-EGFP cells. The percentage of viable Lgr5 cells was plotted against the concentration in GraphPad Prism.
Organ of Corti are dissected from Lgr5 GFP(+) mice and dissociated as single cells as described above. Background media contains the same supplements and growth factors at the same concentrations as described above. Assays for image quantification are run in 96 well black plates with clear bottom with cells embedded in 50% Matrigel at cell density of 500 k cells/mL with 50 uL applied to each well. Cells are cultured for 7 days, with media change every 3-4 days. After 7 days of exposure to experimental conditions (e.g. small molecules), media is then removed from culture and replaced with media containing Hoescht at a 1:2000 dilution for a final concentration of 5 ug/mL (200 uL/well). The plate is then placed in a cell culture incubator at 37C for 1 hr. The media containing Hoescht is then removed and 200 uL/well of Cell Recovery Solution is added. The plate is then incubated on a plastic-wrapped (e.g. Saran wrap) CoolRack™ on ice for 80 minutes. Next, the plate is centrifuged for 5 minutes at 2300 RPMs (Beckman Coulter Allegra 6R centrifuge; GH 3.8A plate rotor; ambient temperature). Cells are then imaged on Celigo using 3 channels for brightfield, blue (Hoescht), and green (Lgr5 GFP). Proliferated cell colonies are captured as summed objects in the blue channel and the green channel. The green Lgr5 GFP(+) cell colonies are quantified for total GFP(+) cell area, while the blue hoescht stained colonies are quantified as total cell area. The % GFP(+) Cell Area is calculated using the total GFP(+) cell area divided by the total cell area multiplied by 100. All results are compiled and utilized to determine the effects of experimental conditions (e.g. small molecules) on the expansion and enrichment of the Lgr5 cell population.
On the technique in general: A flow cytometer gives signals particle by particle.

Another data set concerns the target GSK-3 alpha (Homo sapiens, UniProt P49840). The note with it: Table 2; kind of potency not given; cited from earlier work.
The next data set has as its target TAZ (Homo sapiens, UniProt Q9GZV5). The note with it: Table 1, TAZ activators, literature cell concentration; cited from earlier work.
The next data set relates to HDAC. The note with it: cited from earlier work.
[4] abbreviates: 10 μM IBS008738 combined with 4 μM CHIR99021 and 1 mM VPA in growth factors versus EFI-C or EFI-CV controls.
Where [5] appears, read: Table 1, TAZ activators, concentration range in the assay.
The mark [6] stands for this setting: 0-30 μM FHZ-000706 in a background of growth factors.
The mark [7] stands for this setting: 10 μM FHZ-000706 + 4 μM CHIR99021 in growth factors compared to CHIR alone.
Setting [8] is: TAZ activator alone, FIG. 3A, 3B.

GSK-3 alpha, sequence (P49840 whole entry): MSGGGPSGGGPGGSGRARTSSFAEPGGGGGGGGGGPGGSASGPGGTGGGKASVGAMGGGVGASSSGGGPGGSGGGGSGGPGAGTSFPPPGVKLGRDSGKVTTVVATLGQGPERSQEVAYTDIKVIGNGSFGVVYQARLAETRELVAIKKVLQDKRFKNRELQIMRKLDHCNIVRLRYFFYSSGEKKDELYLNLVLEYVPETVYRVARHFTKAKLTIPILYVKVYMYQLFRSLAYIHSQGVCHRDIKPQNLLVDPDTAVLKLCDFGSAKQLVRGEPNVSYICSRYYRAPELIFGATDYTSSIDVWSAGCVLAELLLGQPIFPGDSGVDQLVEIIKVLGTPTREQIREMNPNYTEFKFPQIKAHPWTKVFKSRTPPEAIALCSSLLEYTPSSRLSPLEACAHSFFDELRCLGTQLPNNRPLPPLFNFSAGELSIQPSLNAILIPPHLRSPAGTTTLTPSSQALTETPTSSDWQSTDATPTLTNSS
TAZ, sequence (Q9GZV5 whole entry): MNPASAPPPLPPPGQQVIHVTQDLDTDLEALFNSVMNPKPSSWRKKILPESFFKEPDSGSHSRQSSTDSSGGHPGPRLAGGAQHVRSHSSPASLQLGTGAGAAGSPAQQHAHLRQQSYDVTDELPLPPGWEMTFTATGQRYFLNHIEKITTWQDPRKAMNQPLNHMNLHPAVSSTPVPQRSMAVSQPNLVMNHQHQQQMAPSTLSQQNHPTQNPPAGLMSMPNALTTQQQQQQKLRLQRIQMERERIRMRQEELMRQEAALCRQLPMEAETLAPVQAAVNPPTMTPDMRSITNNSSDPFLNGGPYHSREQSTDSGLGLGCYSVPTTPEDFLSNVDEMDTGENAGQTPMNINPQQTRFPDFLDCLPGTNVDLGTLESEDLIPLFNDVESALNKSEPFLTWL

For `CC(C)N(CCCNC(=O)Nc1ccc(C(C)(C)C)cc1)C[C@H]1O[C@@H](n2cc(Br)c3c(N)ncnc32)[C@H](O)[C@@H]1O` [SGC0946], the “Lgr5+ Assay” value in data set [1] (concentration range, Table 8) fell in the range of 0.6 to 5 µM. Besides, the “Human In Vivo Conc” value in data set [2] was 0.1-5 μM uM. On DOT1L, the “Lit Cell” value was 10 mM.

Regarding `C=CCNc1nc(N)c(C(=O)c2ccc(Cl)s2)s1` [IBS008738, reference compound], the “Lgr5 GFP(+) cell count (progenitor cell proliferation), FIG. 1A” value in data set [1] (10 μM IBS008738 + 4 μM CHIR99021 in growth factors (50 ng/mL EGF, bFGF, IGR1) versus EFI-C or EFI-CV controls) is given as “enhances”. Besides, the “Lgr5 GFP(+) cell proliferation percentage (enrichment), FIG. 1B” value in data set [1] (10 μM IBS008738 + 4 μM CHIR99021 in growth factors versus EFI-C or EFI-CV controls) was “enhances”. Also, in data set [1] (setting [4]), the “Lgr5 GFP(+) cell count (progenitor cell proliferation), FIG. 2A” value was “does not enhance” and the “Lgr5 GFP(+) cell proliferation percentage (enrichment), FIG. 2B” value is “enhances”. The “Lgr5+ Assay” value in data set [1] (setting [5]) lay in the range of 1.1 to 30 µM. Moreover, in data set [3], the “enrichment of Lgr5+ progenitor cells” value is given as “enriched” and the “proliferation of Lgr5+ progenitor cells” value is listed as “proliferate”.

`O=C1NC(=O)C(c2cnc3ccccn23)=C1c1cn2c3c(cc(F)cc13)CN(C(=O)N1CCCCC1)CC2` [LY2090314, 3-(9-fluoro-2-(piperidine-1-carbonyl)-1,2,3,4-tetrahydro-[1,4]diazepino[6,7,1-hi]indol-7-yl)-4-(imidazo[1,2-a]pyridin-3-yl)-1H-pyrrole-2,5-dione]: the pIC50 on GSK-3 alpha is 8.68.

In the case of `CC(C)N(C[C@H]1O[C@@H](n2cnc3c(N)ncnc32)[C@H](O)[C@@H]1O)[C@H]1C[C@@H](CCc2nc3cc(C(C)(C)C)ccc3[nH]2)C1` [pinometostat], in data set [2] (Table 8, in brackets under the ng/mL range), the “Human In Vivo Conc: Total plasma Css” value is “(1.42-2.94 uM)”. Moreover, the “Human In Vivo Conc” value in data set [2] is listed as “(1-10 uM)”.

`CC(C)N(CCCNC(=O)Nc1ccc(C(C)(C)C)cc1)C[C@H]1O[C@@H](n2ccc3c(N)ncnc32)[C@H](O)[C@@H]1O` [EPZ004777]: in data set [2], the “Human In Vivo Conc” value was 0.1 to 45 µM.

`CCCc1cc(C)[nH]c(=O)c1CNC(=O)c1cc(-c2ccc(N3CCN(C(C)C)CC3)nc2)cc2c1cnn2C(C)C` [UN C1999, reference compound]: in data set [1] (Table 7, result in words), the “Lgr5+ Assay” value was “Active”.

For the molecule `N#Cc1ccc2[nH]c(O)c(-c3ccc(CN4CCOCC4)cn3)c2c1` [AZD 1080], the pIC50 at GSK-3 alpha is 8.16.

For the molecule `CCCCc1nc2cc(-c3cccnc3)c(C)nc2n1Cc1ccc(-c2ccccc2-c2nn[nH]n2)cc1` [TM-25659], the “Lit Cell” value on TAZ is 10 to 100 µM.

Consider `O=C([O-])CCCc1ccccc1.[Na+]` [Na phenylbutyrate], for which the Class selectivity result in the data set on HDAC (Table 5, HDAC class) is given as “Class I >”. Further, the pIC50 with HDAC (Table 5, HDAC Inhib 1, 2, 3, 8, kind of potency not given, read-out: HDAC Potene) is 4.80 to 5.05.

Take `C=CCNc1nc(N)c(C(=O)c2ccc(F)s2)s1` [TT10]: on TAZ, the “Lit Cell” value was 1 µM.

Turning to `c1ccc([C@@H]2C[C@H]2NC2CCNCC2)cc1` [GSK-LSD1], in data set [1] (Table 9, with <= the upper end of a range printed over two lines), the “Lgr5+ Assay” value was at most 50 µM.

On to `CS(=O)(=O)c1ccc(-c2cnc(NCc3ccco3)n3cnnc23)cc1` [EED226, reference compound], for which the “Lgr5+ Assay” value in data set [1] (Table 7, result in words) is on record as “Active”.

With `Cc1ccc(-n2cnc(N)c2C(=O)c2ccccc2)cc1` [FHZ-000706], in data set [1] (setting [6]), the “Lgr5 GFP(+) cell area (enrichment), FIG. 3B” value is given as “does not enrich” and the “Lgr5 GFP(+) cell area (proliferation), FIG. 3A” value is on record as “does not proliferate”. Further, in data set [1] (setting [7]), the “Lgr5 GFP(+) cell area (proliferation), FIG. 4A” value was “enhances” and the “Lgr5 GFP(+) cell area percentage (enrichment), FIG. 4B” value is on record as “enhances”. Besides, the “Lgr5+ Assay” value in data set [1] (setting [5]) lay in the range of 1 to 100 µM. In addition, in data set [3], the “enrichment of Lgr5+ progenitor cells” value is listed as “enriched” and the “proliferation of Lgr5+ progenitor cells” value is given as “proliferate”. Besides, in data set [3] (setting [8]), the “enrichment of cochlear progenitor cells” value is listed as “does not promote” and the “proliferation of cochlear progenitor cells” value is on record as “does not promote”.

Regarding `N[C@@H]1C[C@H]1c1ccccc1` [TCP], in data set [2] (Table 9, in brackets under the ng/mL range, read-out: Human Plasma Conc.: Cmax), the Cmax – broadly, the maximum level reached in the sampled fluid or tissue – was 225 to 1500 nM. For the same molecule, the “Human Plasma Conc.: Cmax” value in data set [2] (Table 9) is 30-200 ng/ml ng/mL.
